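48-hour exposure; five concentrations; linearly interpolated endpoints. GI50: concentration for 50% inhibition of growth.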 Active and inactive are the calls of the source. No stated cut-off is given here; in the data, active = GI50 up to about 1.1 µM and inactive = higher.
How the values were obtained:
Test in all cases: NCI tumour cell line growth inhibition, 48 h
SF-539 = test system: SF-539
SNB-78 = test system: SNB-78
MOLT-4 = test system: MOLT-4
DMS-114 = test system: DMS-114
K562 = test system: K562
DMS-273 = test system: DMS-273
SNB-19 = test system: SNB-19
A498 = test system: A498
EKVX = test system: EKVX
U-251 = test system: U-251
HOP-18 = test system: HOP-18
UACC-257 = test system: UACC-257
RXF 631 = test system: RXF 631
KM12 = test system: KM12
HOP-92 = test system: HOP-92
HCT-116 = test system: HCT-116
Malme-3M = test system: Malme-3M
ACHN = test system: ACHN
NCI-H23 = test system: NCI-H23
TK-10 = test system: TK-10
786-0 = test system: 786-0
CCRF-CEM = test system: CCRF-CEM
COLO 205 = test system: COLO 205
RXF 393 = test system: RXF 393
SW-620 = test system: SW-620
DLD-1 = test system: DLD-1
SK-OV-3 = test system: SK-OV-3
UO-31 = test system: UO-31
SK-MEL-5 = test system: SK-MEL-5
SF-295 = test system: SF-295
OVCAR-4 = test system: OVCAR-4
A549 = test system: A549
LOX IMVI = test system: LOX IMVI
HOP-62 = test system: HOP-62
XF498 = test system: XF498
RPMI-8226 = test system: RPMI-8226
UACC-62 = test system: UACC-62
OVCAR-3 = test system: OVCAR-3
HT-29 = test system: HT-29
SR = test system: SR
IGROV-1 = test system: IGROV-1
KM-20L2 = test system: KM-20L2
HCC 2998 = test system: HCC 2998
LXFL 529 = test system: LXFL 529
HCT-15 = test system: HCT-15
OVCAR-8 = test system: OVCAR-8
NCI-H522 = test system: NCI-H522
NCI-H226 = test system: NCI-H226
OVCAR-5 = test system: OVCAR-5
SK-MEL-2 = test system: SK-MEL-2
M19-MEL = test system: M19-MEL
SN12C = test system: SN12C
CAKI-1 = test system: CAKI-1
HL-60 = test system: HL-60
SK-MEL-28 = test system: SK-MEL-28
SNB-75 = test system: SNB-75
M14 = test system: M14
SF-268 = test system: SF-268
NCI-H460 = test system: NCI-H460
NCI/ADR-RES = test system: NCI/ADR-RES
Hs-578T = test system: Hs-578T
MDA-MB-435 = test system: MDA-MB-435
PC-3 = test system: PC-3
T47D = test system: T47D
MDA-N = test system: MDA-N
BT-549 = test system: BT-549
DU-145 = test system: DU-145
MDA-MB-231 = test system: MDA-MB-231
MCF7 = test system: MCF7

## CCOC(=O)c1c(C(F)(F)F)oc2c1ccc1nc3nonc3nc12
SF-539
  GI50: 16.2 µM (inactive)
SNB-78
  GI50: 14.7 µM (inactive)
MOLT-4
  GI50: 2.54 µM (inactive)
DMS-114
  GI50: 23.7 µM (inactive)
K562
  GI50: 2.67 µM (inactive)
DMS-273
  GI50: 19.1 µM (inactive)
SNB-19
  GI50: 18.2 µM (inactive)
A498
  GI50: 16.7 µM (inactive)
EKVX
  GI50: 17.9 µM (inactive)
U-251
  GI50: 15.7 µM (inactive)
HOP-18
  GI50: 11 µM (inactive)
UACC-257
  GI50: 13.5 µM (inactive)
RXF 631
  GI50: 19 µM (inactive)
KM12
  GI50: 19.3 µM (inactive)
HOP-92
  GI50: 13.2 µM (inactive)
HCT-116
  GI50: 17 µM (inactive)
Malme-3M
  GI50: 17 µM (inactive)
ACHN
  GI50: 15.3 µM (inactive)
NCI-H23
  GI50: 13.4 µM (inactive)
TK-10
  GI50: 19.4 µM (inactive)
786-0
  GI50: 12.4 µM (inactive)
CCRF-CEM
  GI50: 1.91 µM (inactive)
COLO 205
  GI50: 24.2 µM (inactive)
RXF 393
  GI50: 11.9 µM (inactive)
SW-620
  GI50: 16.8 µM (inactive)
DLD-1
  GI50: 14.3 µM (inactive)
SK-OV-3
  GI50: 20.1 µM (inactive)
UO-31
  GI50: 19.2 µM (inactive)
SK-MEL-5
  GI50: 13.4 µM (inactive)
SF-295
  GI50: 27 µM (inactive)
OVCAR-4
  GI50: 9.82 µM (inactive)
A549
  GI50: 18 µM (inactive)
LOX IMVI
  GI50: 16.2 µM (inactive)
HOP-62
  GI50: 13.8 µM (inactive)
XF498
  GI50: 17 µM (inactive)
RPMI-8226
  GI50: 6.07 µM (inactive)
UACC-62
  GI50: 15 µM (inactive)
OVCAR-3
  GI50: 16.5 µM (inactive)
HT-29
  GI50: 15.5 µM (inactive)
SR
  GI50: 3.58 µM (inactive)
IGROV-1
  GI50: 23.2 µM (inactive)
KM-20L2
  GI50: 18.2 µM (inactive)
HCC 2998
  GI50: 24.9 µM (inactive)
LXFL 529
  GI50: 14 µM (inactive)
HCT-15
  GI50: 17.3 µM
OVCAR-8
  GI50: 16.3 µM (inactive)
NCI-H522
  GI50: 15.1 µM (inactive)
NCI-H226
  GI50: 19.9 µM (inactive)
OVCAR-5
  GI50: 17.2 µM (inactive)
SK-MEL-2
  GI50: 19.3 µM (inactive)
M19-MEL
  GI50: 18.6 µM (inactive)
SN12C
  GI50: 17.4 µM (inactive)
CAKI-1
  GI50: 14 µM (inactive)
HL-60
  GI50: 4.46 µM (inactive)
SK-MEL-28
  GI50: 14.3 µM (inactive)
SNB-75
  GI50: 13.2 µM (inactive)
M14
  GI50: 9.14 µM (inactive)
SF-268
  GI50: 17.9 µM (inactive)
NCI-H460
  GI50: 23.3 µM (inactive)

## COC(=O)NC1C(C)OC(OC2C/C=C(/C)C3C=CC4C(OC5CC(OC6CCC(OC7CC(O)C(OC8CCC(O)C(C)O8)C(C)O7)C(C)O6)C(OC(C)=O)C(C)O5)C(C)CC(C)C4C3(C)/C(O)=C3/C(=O)OC4(CC(C=O)=CC(O)C4/C=C\2C)C3=O)CC1(C)[N+](=O)[O-] (stereo not drawn)
NCI/ADR-RES
  GI50: 6.17 µM (inactive)
SF-539
  GI50: 0.34 µM (active)
Hs-578T
  GI50: 282 nM (active)
SNB-78
  GI50: 1.82 µM (inactive)
MDA-MB-435
  GI50: 382 nM (active)
MOLT-4
  GI50: 0.474 µM (active)
DMS-114
  GI50: 0.385 µM (active)
K562
  GI50: 0.885 µM (active)
DMS-273
  GI50: 1.27 µM (inactive)
SNB-19
  GI50: 0.69 µM (active)
A498
  GI50: 0.668 µM (active)
EKVX
  GI50: 1.85 µM (inactive)
U-251
  GI50: 0.342 µM (active)
HOP-18
  GI50: 2.15 µM (inactive)
UACC-257
  GI50: 0.724 µM (active)
RXF 631
  GI50: 0.603 µM (active)
KM12
  GI50: 0.809 µM (active)
PC-3
  GI50: 1.57 µM (inactive)
HOP-92
  GI50: 1.06 µM (active)
HCT-116
  GI50: 0.69 µM (active)
Malme-3M
  GI50: 0.421 µM (active)
ACHN
  GI50: 1.02 µM (active)
NCI-H23
  GI50: 0.774 µM (active)
TK-10
  GI50: 1.61 µM (inactive)
786-0
  GI50: 0.861 µM (active)
CCRF-CEM
  GI50: 0.178 µM (active)
COLO 205
  GI50: 1.1 µM (active)
T47D
  GI50: 2.06 µM (inactive)
RXF 393
  GI50: 0.551 µM (active)
SW-620
  GI50: 0.989 µM (active)
DLD-1
  GI50: 2.45 µM (inactive)
SK-OV-3
  GI50: 2.44 µM (inactive)
UO-31
  GI50: 1.68 µM (inactive)
SK-MEL-5
  GI50: 0.82 µM (active)
SF-295
  GI50: 0.993 µM (active)
OVCAR-4
  GI50: 1.82 µM (inactive)
A549
  GI50: 1.77 µM (inactive)
MDA-N
  GI50: 661 nM (active)
LOX IMVI
  GI50: 0.397 µM (active)
HOP-62
  GI50: 0.767 µM (active)
XF498
  GI50: 0.261 µM (active)
BT-549
  GI50: 1.04 µM (active)
RPMI-8226
  GI50: 0.957 µM (active)
UACC-62
  GI50: 0.552 µM (active)
OVCAR-3
  GI50: 0.971 µM (active)
HT-29
  GI50: 1.1 µM (active)
SR
  GI50: 0.857 µM (active)
IGROV-1
  GI50: 3.44 µM (inactive)
KM-20L2
  GI50: 1.29 µM (inactive)
HCC 2998
  GI50: 0.951 µM (active)
LXFL 529
  GI50: 0.352 µM (active)
HCT-15
  GI50: 0.832 µM
OVCAR-8
  GI50: 1 µM (active)
DU-145
  GI50: 1.58 µM (inactive)
NCI-H522
  GI50: 0.824 µM (active)
NCI-H226
  GI50: 1.06 µM (active)
OVCAR-5
  GI50: 1.93 µM (inactive)
SK-MEL-2
  GI50: 0.475 µM (active)
M19-MEL
  GI50: 0.367 µM (active)
SN12C
  GI50: 0.964 µM (active)
CAKI-1
  GI50: 2.49 µM (inactive)
HL-60
  GI50: 1.24 µM (inactive)
SK-MEL-28
  GI50: 0.403 µM (active)
SNB-75
  GI50: 1.75 µM (inactive)
MDA-MB-231
  GI50: 755 nM (active)
M14
  GI50: 1.07 µM (active)
SF-268
  GI50: 0.719 µM (active)
NCI-H460
  GI50: 0.778 µM (active)
MCF7
  GI50: 940 nM (active)

Reference: ChEMBL document CHEMBL1201862, “PubChem BioAssay data set” (2004)
